In patent EP4755375A1, “PHARMACEUTICAL COMPOSITION CONTAINING SUBSTITUTED INDOL-5-OL DERIVATIVE AND USE THEREOF” (Changshan Conjuchem Biopharmaceutical Research and …, priority 2023, dated 2025):
Values after ≈ are worked out from the molar mass of the structure shown.

How the values were obtained:
[1] = Dog PK experiment for tablets; assay type: in vivo; conditions: plasma, beagle dogs (male, fasted), oral, dose 5 mg/kg
Protocol: Example 59 and Example 60 were orally administered to beagle dogs (male, fasted, 3 dogs per group) at a dose of about 5 mg/kg. Example 65 was orally administered to beagle dogs (half male and half female, fasted, 8 dogs) at a dose of 50 mg/animal (about 5 mg/kg). Whole blood samples of 0.3 mL were collected at 0 min, 10 min, 15 min, 30 min, 1 h, 2 h, 3 h, 4 h, 6 h, 8 h, 12 h, and 24 h after administration. The blood samples were placed in anticoagulant tubes, gently inverted several times, and then kept on wet ice in preparation for centrifugation. Within 30 minutes after collection, the samples were centrifuged at about 2000 × g (force) at 4°C for 10 minutes to obtain plasma. The resulting plasma samples were immediately divided into two aliquots (about 75 µL each) and transferred to cryovials. The samples were maintained on wet ice throughout the processing and stored in a freezer at -75 ± 15°C until analysis. The concentrations of the test substance in the plasma samples were analyzed using an LC-MS/MS method. Table 51 Summary of Dog PK Data for Tablets

[2] = Solubility testing of solid dispersions in media with different pH values (shaker, 24 hours); assay type: physicochemical; conditions: 0.1mol/L HCl
Protocol: (§1) Weigh an amount of powder (equivalent to 50 mg of API) from Examples 1-7 into a 10-mL vial, add 5 mL of media with different pH values, so that the theoretical concentration of API in the sample solution was about 10 mg/mL. Shake the vials in a shaker for 24 hours, and determine the solubility. During shaking, observe the dissolution phenomenon of the powder in the solution. If the solution becomes clear, add an additional amount of sample powder. Table 4 Solubility of Solid Dispersions Prepared Using Povidone in Different Media
Weigh an amount of powder (equivalent to 50 mg of API) from Examples 9-13 into a 10-mL vial, add a corresponding volume of media with different pH values, so that the theoretical concentration of API in the solution was about 10 mg/mL (the theoretical concentration of API in the sample solution of Example 13 was about 5 mg/mL). Shake the vials in a shaker for 24 hours, and sample at 4 h and 24 h to determine the solubility. During shaking, observe the dissolution phenomenon of the powder in the solution. If the solution becomes clear, add an additional amount of sample powder. Table 7 Solubility of Solid Dispersions Prepared Using HPMC in Different Media
as §1, with “Examples 14-16” for “Examples 1-7”, “add a corresponding volume” for “add 5 mL”, “and sample at 4 h and 24 h to” for “and”, “Table 9” for “Table 4”, “Using HPC” for “Using Povidone”
as §1, with “Examples 17-21” for “Examples 1-7”, “add a corresponding volume” for “add 5 mL”, “and sample at 4 h and 24 h to” for “and”, “Table 11” for “Table 4”, “Using Copovidone S630” for “Using Povidone”
Weigh an amount of powder (equivalent to 50 mg of API) from Examples 22-24 into a 10-mL vial, add a corresponding volume of media with different pH values, so that the theoretical concentration of API in the sample solution was about 10 mg/mL. Shake the vials in a shaker for 24 hours, and sample at 4 h and 24 h to determine solubility. Table 13 Solubility of Solid Dispersions Prepared Using HPMC AS in Different Media
Weigh an amount of powder(equivalent to 50 mg of API) from Examples 25-28 into a 10 mL vial, add a corresponding volume of media with different pH values, so that the theoretical concentration of API in the sample solution was about 10 mg/mL. Shake the vials in a shaker for 24 hours, and sample at 4 h and 24 h to determine the solubility. During shaking, observe the dissolution phenomenon of the powder in the solution. If the solution becomes clear, add an additional amount of sample powder. Table 15 Solubility of Solid Dispersions Prepared Using Polyethylene Glycol in Different Media […]

[3] = Dog PK: bioavailability of solid dispersions and API; assay type: in vivo; conditions: plasma, beagle dogs (male, fasted), oral, dose 5 mg/kg
Protocol: Based on the solubility data from the solid dispersion formulation examples above, the API (administration form: 10 mg/mL suspension, API suspended in 0.5% CMC-Na solution) and solid dispersions prepared using PVP K30 (drug-excipient ratios of 1:3 and 1:4, respectively) were selected for dog PK experiments. The solid dispersions were filled into hard capsules and orally administered to beagle dogs (male, fasted, 3 dogs per group) at a dose of 5 mg/kg. Whole blood samples of 0.3 mL were collected at 0 min, 10 min, 15 min, 30 min, 1 h, 2 h, 3 h, 4 h, 6 h, 8 h, 12 h, and 24 h after administration. The blood samples were placed in anticoagulant tubes, gently inverted several times, and then kept on wet ice in preparation for centrifugation. Within 30 minutes after collection, the samples were centrifuged at about 2000 × g (force) at 4°C for 10 minutes to obtain plasma. The resulting plasma samples were immediately divided into two aliquots (about 75 µL each) and transferred to cryovials. The samples were maintained on wet ice throughout the processing and stored in a freezer at -75 ± 15°C until analysis. The concentrations of the test substance in the plasma samples were analyzed using an LC-MS/MS method. Table 50 Summary of Dog PK Data for SDD Formulations

[4] = Solubility of API in solvent combinations (visual dissolution); assay type: physicochemical; conditions: organic solvent combinations of Table 2, organic solvent or mixture, thermodynamic from solid; solvent combinations of Table 2 (acetone/methanol, acetone/ethanol, with water or dichloromethane); read-out: solubility of API in the solvent combinations listed in Table 2
Protocol: The solvent compositions capable of simultaneously dissolving the compound of the present invention and the carrier materials are shown in Table 2. The detection method for the solubility of API in different solvent combinations is as follows: Weigh 20 mg of the compound of the present invention and add it to 4 mL of different solvents or solvent combinations, respectively. Gently shake and observe the dissolution phenomenon. If complete dissolution occurs, add a small amount of additional API to the above solution, continue shaking, and observe the dissolution phenomenon. […] All carrier materials listed in Table 2 are soluble in the selected solvents or solvent combinations. Table 2 Solvent Compositions Capable of Simultaneously Dissolving the Compound of the Present Invention and the Carrier

[5] = Saturated solubility of API in different solvents/media; assay type: physicochemical; conditions: for solubility at 24 h: organic solvent or mixture, thermodynamic from solid, room temperature
Protocol: The saturated solubility of the compound of the present invention in different solvents/media is shown in Table 1 (Test method: An appropriate excess amount of API was placed in an appropriate amount of solvent and shaken at room temperature for 24 hours, after which the sample solution was processed and analyzed). Among them, methanol and acetone are the optimal choices. Table 1 Saturated Solubility of the Compound of the Present Invention in Different Solvents/Media

AUC [1]: 59 ng·h/mL | Cmax [1]: 22 ng/mL | Solubility ([2]; 4h, API alone, sample concentration not given): 50 µg/mL (≈ 0.104 mM) | Solubility ([2]; 24h, API alone, sample concentration not given): 50 µg/mL (≈ 0.104 mM) | solubility at 2 h ([2]; simulated gastric fluid, thermodynamic from solid, 2h, API alone, sample concentration not given): 50 µg/mL (≈ 0.104 mM) | solubility at 4 h ([2]; simulated gastric fluid, thermodynamic from solid, 4h, sample Supersaturated): 50 µg/mL (≈ 0.104 mM) | solubility at 24 h ([2]; simulated gastric fluid, thermodynamic from solid, 24h, sample Supersaturated): 50 µg/mL (≈ 0.104 mM) | AUC [3]: 59 ng·h/mL | Cmax [3]: 22 ng/mL | Solubility [4]: > 5000 µg/mL | Solubility Description ([5]; Acetone): Slightly soluble | Solubility Description ([5]; Acetonitrile): Slightly soluble | Solubility Description ([5]; Ethanol): Slightly soluble | Solubility Description ([5]; Ethyl acetate): Slightly soluble | Solubility Description ([5]; Isopropanol): Slightly soluble | Solubility Description ([5]; Methanol): Slightly soluble | Solubility Description ([5]; Propylene glycol): Slightly soluble | solubility at 24 h ([5]; Acetone): 5990 µg/mL (≈ 12.5 mM) | solubility at 24 h ([5]; Acetonitrile): 1220 µg/mL (≈ 2.54 mM) | solubility at 24 h ([5]; Ethanol): 5170 µg/mL (≈ 10.8 mM) | solubility at 24 h ([5]; Ethyl acetate): 4980 µg/mL (≈ 10.4 mM) | solubility at 24 h ([5]; Isopropanol): 2340 µg/mL (≈ 4.87 mM) | solubility at 24 h ([5]; Methanol): 8360 µg/mL (≈ 17.4 mM) | solubility at 24 h ([5]; Propylene glycol): 2220 µg/mL (≈ 4.62 mM)
SMILES: C/C=C/c1cc(Nc2cc(N3CCN(C)CC3)nc(Oc3cc(F)c4[nH]c(C)cc4c3F)n2)n[nH]1 [API]
